Measurements reported in patent US11578055B2, “Triazacyclododecansulfonamide (“TCD”)-based protein secretion inhibitors” (KEZAR LIFE SCIENCES, priority 2018, dated 2023).

Test system: B16F10 cells
Assay: Efficacy study: tumor growth and body weight in a B16F10 model
Format: in vivo, C57BL/6 mice
Settings: B16F10 refractory model, once-a-week dosing, compared to anti-PD-1 therapy
Description: Efficacy Study: Effect of Compound A87 on Tumor Growth and Body Weight in a B16F10 Model Comparted to Anti-PD-1 Therapy.
Female C57BL/6 mice (7-8 week old) were injected in the flank subcutaneously with 5×10^6 B16F10 cells in 0.1 ml on Day 0. On Day 3, compound A87 formulated in 10% ETOH/10% Kolliphor EL was administered IV 30 mg/kg QW, IV 10 mg/kg D1D2, or IP 15 mg/kg QOD. Anti-PD1 antibody treatment (RMP1-14 from Bioxcell, 200 μg) was administered i.p. on a QOD×3 dose schedule. Tumor size was monitored with a digital caliper (Fowler) every 2-3 d until reaching a size of 1.5-2.0 cm and expressed as volume (length×width×height). B16F10, a melanoma line, was obtained from ATCC. C57/BL6 mice were purchased from Charles rivers laboratories.

C[C@H]1CN(S(=O)(=O)c2ccc(N(C)C)cc2)CCCN(CC2CCCCC2)CCCN(S(=O)(=O)N2CCc3cc(Cl)ccc3C2)C1 [A87]
tumor growth inhibition: superior efficacy
